Test results as given in publication PMC10913484, “Hydroxyhexylitaconic acids as potent IMP-type metallo-β-lactamase inhibitors for controlling carbapenem resistance in Enterobacterales” (Microbiology Spectrum, 2024).

How the values were obtained:
[1] = target: T1, IMP-1 (Serratia marcescens, UniProt P52699); format: biochemical; conditions: IMP-1 with agent (5 mM stock), dialysis
T1 construct: made in house
Experimental: A total of 5 µL of IMP-1 (100 µM) and 2 µL of EDTA (5 mM) or HHIA (5 mM) were mixed in 100 µL of 20 mM HEPES buffer (pH 7.5) pretreated with Chelex 100 resin (Bio-Rad) and incubated on ice for 30 min. The samples were dialyzed against ultrapure water at 4°C for 6 h using Slide-A-Lyzer Dialysis Cassettes (cutoff, 3.5 K) (Thermo Fisher Scientific) and treated with proteinase K (FUJIFILM Wako Pure Chemical Corporation) at 37°C for 1 h. The zinc concentration in the samples was determined using a Zinc Assay Kit (MG Metallogenics).

[2] = system: SMB-1; assay: In vitro inhibition assay (IPM hydrolysis); format: biochemical; conditions: even at high doses (100 µM)
Experimental: (§1) MBLs were incubated with HHIAs in 20 mM HEPES buffer (pH 7.5) containing 200 mM NaCl and 50 µg/mL BSA at 30°C for 5 min. IPM was added at a concentration of 100 µM, and the rate of IPM hydrolysis was monitored at 297 nm. The initial velocity (v0) rates were plotted against HHIA’s logarithmic concentrations, and the data were fitted to a four-parameter variable slope to obtain the half-maximal inhibitor concentration (IC50) values using GraphPad Prism 9 software (GraphPad Software). The inhibition constant (Ki) was determined as follows: v0 was measured after varying the concentrations of IPM and HHIAs, and inverse v0 (1/v0) was plotted against the inverse IPM concentration [1/(IPM)]. Lineweaver–Burk plots were created to obtain Ki values under the competitive inhibition model using the SigmaPlot 14 suite (Hulinks).

[3] = target: T1, IMP-1; assay: In vitro inhibition assay (IPM hydrolysis); format: biochemical; conditions: for Inhibition mode for IMP-1: Lineweaver–Burk plots
Experimental: as §1

[4] = target: T2, NDM-1 (Klebsiella pneumoniae, UniProt C7C422); assay: In vitro inhibition assay (IPM hydrolysis); format: biochemical; conditions: even at high doses (100 µM)
T2 construct: made in house
Experimental: as §1

[5] = target: T3, IMP-6 (Serratia marcescens, UniProt P52699, S214G); assay: In vitro inhibition assay (IPM hydrolysis); format: biochemical
T3 construct: made in house
Experimental: as §1

[6] = target: T4, VIM-2 (Escherichia coli, UniProt Q5U7L7); assay: In vitro inhibition assay (IPM hydrolysis); format: biochemical
T4 construct: made in house
Experimental: as §1

[7] = target: T1, IMP-1; format: binding; conditions: DSF; control protein 52.5°C
Experimental: The DSF assay was performed using the Protein Thermal Shift Dye Kit (Thermo Fisher Scientific) and StepOnePlus Real-Time PCR Systems (Applied Biosystems) as follows: 2 µL of IMP-1 enzyme (100 µM), 1 µL of EDTA or HHIA solution (5 mM), 2.5 µL of diluted Protein Thermal Shift Dye (32×), 5 µL of Protein Thermal Shift buffer, and 9.5 µL of water were mixed in a test tube and incubated for 15 min at 4°C. Four replicates of each sample were performed. The fluorescence was monitored at 0.7°C increments from 4°C to 99°C. The relative fluorescence units were fitted with the Boltzmann equation using the TSA-CRAFT software to determine the melting point (Tm) ([47]).

T1 sequence (P52699 19-246, looked up, species assumed): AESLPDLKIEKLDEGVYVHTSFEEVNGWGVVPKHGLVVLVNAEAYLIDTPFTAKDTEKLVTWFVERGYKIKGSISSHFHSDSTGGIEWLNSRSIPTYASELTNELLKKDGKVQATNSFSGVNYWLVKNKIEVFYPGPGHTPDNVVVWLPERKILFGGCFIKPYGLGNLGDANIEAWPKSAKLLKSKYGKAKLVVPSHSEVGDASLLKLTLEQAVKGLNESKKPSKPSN
T3 sequence (P52699 19-246 S214G): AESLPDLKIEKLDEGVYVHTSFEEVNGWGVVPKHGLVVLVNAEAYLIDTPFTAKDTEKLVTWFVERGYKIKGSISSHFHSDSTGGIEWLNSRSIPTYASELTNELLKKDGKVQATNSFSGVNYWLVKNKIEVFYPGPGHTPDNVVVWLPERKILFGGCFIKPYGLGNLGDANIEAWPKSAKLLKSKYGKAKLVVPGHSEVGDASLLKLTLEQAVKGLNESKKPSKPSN
T2 sequence (C7C422 29-270 limits assumed): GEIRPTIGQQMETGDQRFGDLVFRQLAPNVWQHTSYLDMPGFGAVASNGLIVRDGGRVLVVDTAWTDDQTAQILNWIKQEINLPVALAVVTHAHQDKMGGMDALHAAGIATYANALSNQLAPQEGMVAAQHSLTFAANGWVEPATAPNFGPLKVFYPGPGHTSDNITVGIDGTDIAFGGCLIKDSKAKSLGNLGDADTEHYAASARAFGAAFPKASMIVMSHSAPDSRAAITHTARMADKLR

| SMILES | Zinc ions in IMP-1 after treatment [1] | Inhibition of hydrolyzing activity of SMB-1 [2] | IC50 [3] [µM] | Ki [3] [µM] | Inhibition mode for IMP-1 [3] | Inhibition of hydrolyzing activity of NDM-1 [4] | Ki [5] [µM] | Inhibitory activity against VIM-2 [6] | Melting temperature (Tm) of treated IMP-1 [7] [°C] |
| --- | --- | --- | --- | --- | --- | --- | --- | --- | --- |
| C=C(C(=O)O)C(CCCCC(C)O)C(=O)O (stereo not drawn) [9-HHIA, 9-hydroxyhexylitaconic acid] | did not cause a significant loss of zinc ions | did not inhibit | 50.5 | 11.1 | competitive inhibitors | did not inhibit | 27.8 | moderate | 54.9 |
| C=C(C(=O)O)C(CCCCCCO)C(=O)O (stereo not drawn) [10-HHIA, 10-hydroxyhexylitaconic acid] | did not cause a significant loss of zinc ions | did not inhibit | 31.6 | 5 | competitive inhibitors | did not inhibit | 21 | moderate | 55.6 |
